Laboratory results: the supplement of paper PMC5908809

Legend:
Experiment in all cases: relative IC50 (inflection point of fitted viability curve, relative to fitted max inhibition); higher = less sensitive
Details in all cases: 72 h
KAI3 (IL-2 2.5 ng/mL) = test system: KAI3 (IL-2 2.5 ng/mL)
Method: (§1)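 Drug sensitivity and resistance testing: 5 concentrations over a 10,000-fold range, 72 h at 37 °C, viability by CellTiter-Glo normalised to DMSO and benzethonium chloride controls. IC50 is the inflection point of a logistic fit (min fixed at 0, max fitted), so it is relative to the fitted maximal inhibition. Kept only where fitted max inhibition is at least 50%.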

SNK-6 (IL-2 2.5 ng/mL) = test system: SNK-6 (IL-2 2.5 ng/mL)
Method: as §1

YT (IL-2 2.5 ng/mL) = test system: YT (IL-2 2.5 ng/mL)
Method: as §1

[1] = test system: normal primary NK cells, pool 1 (3 donors) (IL-2 2.5 ng/mL)
Method: as §1

[2] = test system: normal primary NK cells, pool 2 (3 donors) (IL-2 2.5 ng/mL)
Method: as §1

NK-92 (IL-2 2.5 ng/mL) = test system: NK-92 (IL-2 2.5 ng/mL)
Method: as §1

IMC-1 (IL-2 20 ng/mL) = test system: IMC-1 (IL-2 20 ng/mL)
Method: as §1

KHYG-1 (IL-2 2.5 ng/mL) = test system: KHYG-1 (IL-2 2.5 ng/mL)
Method: as §1

[3] = test system: normal primary NK cells, pool 1 (3 donors), resting (IL-2 0 ng/mL)
Method: as §1

NK-YS (IL-2 2.5 ng/mL) = test system: NK-YS (IL-2 2.5 ng/mL)
Method: as §1

DERL-7 (IL-2 2.5 ng/mL) = test system: DERL-7 (IL-2 2.5 ng/mL)
Method: as §1

NKL (IL-2 2.5 ng/mL) = test system: NKL (IL-2 2.5 ng/mL)
Method: as §1

[4] = test system: normal primary NK cells, pool 3 (3 donors) (IL-2 2.5 ng/mL)
Method: as §1

Structure (SMILES) | relative IC50 (KAI3 (IL-2 2.5 ng/mL)) | relative IC50 (SNK-6 (IL-2 2.5 ng/mL)) | relative IC50 (YT (IL-2 2.5 ng/mL)) | relative IC50 [1] | relative IC50 [2] | relative IC50 (NK-92 (IL-2 2.5 ng/mL)) | relative IC50 (IMC-1 (IL-2 20 ng/mL)) | relative IC50 (KHYG-1 (IL-2 2.5 ng/mL)) | relative IC50 [3] | relative IC50 (NK-YS (IL-2 2.5 ng/mL)) | relative IC50 (DERL-7 (IL-2 2.5 ng/mL)) | relative IC50 (NKL (IL-2 2.5 ng/mL)) | relative IC50 [4]
O=c1cc(N2CCOCC2)oc2c(-c3ccccc3)cccc12 | 11500 nM | 4830 nM | 8330 nM | 13400 nM | 11700 nM | 12300 nM | 35200 nM | 13600 nM | 6670 nM | 9060 nM | 5890 nM | 5080 nM | 16800 nM
COc1cccc2c1C(=O)c1c(O)c3c(c(O)c1C2=O)C[C@@](O)(C(C)=O)C[C@@H]3O[C@H]1C[C@H](N)[C@H](O)[C@H](C)O1 [Daunorubicin] | 54.5 nM | 34.7 nM | 40.8 nM | 21.6 nM | 20.8 nM | 45.7 nM | 19.2 nM | 38.2 nM | 15.7 nM | 31.1 nM | 21.7 nM | 3.74 nM | 42 nM
Cc1c2oc3c(C)ccc(C(=O)N[C@@H]4C(=O)N[C@H](C(C)C)C(=O)N5CCC[C@H]5C(=O)N(C)CC(=O)N(C)[C@@H](C(C)C)C(=O)O[C@@H]4C)c3nc-2c(C(=O)N[C@@H]2C(=O)N[C@H](C(C)C)C(=O)N3CCC[C@H]3C(=O)N(C)CC(=O)N(C)[C@@H](C(C)C)C(=O)O[C@@H]2C)c(N)c1=O [Dactinomycin] | 4.77 nM | 0.27 nM | 0.98 nM | 13.4 nM | 5.98 nM | 24.7 nM | 12.2 nM | 2.49 nM | 4.39 nM | 0.55 nM | 1.43 nM | 0.68 nM | 12.7 nM
CN(C)c1cc2c(cc1Sc1nc3c(N)nccc3n1CCNCC(C)(C)C)OCO2 [CUDC-305] | 114 nM | 328 nM | 302 nM | 232 nM | 208 nM | 204 nM | 301 nM | 243 nM | 199 nM | 158 nM | 164 nM | 293 nM | 308 nM
Cc1[nH]c2ccccc2c1CCNCc1ccc(/C=C/C(=O)NO)cc1 [Panobinostat] | 5.94 nM | 14.3 nM | 21.2 nM | 12.9 nM | 7.38 nM | 13.4 nM | 29.9 nM | 16.3 nM | 5.89 nM | 17.4 nM | 12.5 nM | 8.13 nM | 13.5 nM
CCN(CC)C(=S)SSC(=S)N(CC)CC [Disulfiram] | 16200 nM | 40300 nM | 25700 nM | 323 nM | 224 nM | 30100 nM | 1590 nM | 2300 nM | 309 nM | 987 nM | 194 nM | 256 nM | 320 nM
CN1CCN(c2cc(C(=O)Nc3ccc4c(c3)-c3c(c(C(N)=O)nn3-c3ccc(F)cc3)CC4)c(Cl)cn2)CC1 [PHA 408] | 940 nM | 1620 nM | 1920 nM | 2590 nM | 2100 nM | 2090 nM | 2970 nM | 2990 nM | 2140 nM | 2440 nM | 1350 nM | 1620 nM | 2780 nM
COc1ccc(C[C@H](NC(=O)[C@H](C)NC(=O)CN2CCOCC2)C(=O)N[C@@H](Cc2ccccc2)C(=O)C2(C)CO2)cc1 (stereo in doubt) [ONX-0914] | 18.1 nM | 62.6 nM | 64.7 nM | 30.6 nM | 27.4 nM | 24.4 nM | 158 nM | 142 nM | 20.1 nM | 38.1 nM | 18.7 nM | 29 nM | 61.8 nM
